How the values were obtained:
Type in all cases: in vivo
Cucumber [1] = assay: Preemergence herbicidal activity, % control of plant growth; settings: Cucumis sativus, pre-emergence, 504 h, 16 lb/acre, about 3 weeks
Description: (§1) By "preemergence" is meant that the compound is applied to the soil prior to emergence of the weed species sought to be controlled. This term, as used herein, also means the application of the herbicidal compounds falling within the scope of this disclosure to areas wherein useful or desirable plants are either growing or have been sown, but where the undesirable plants sought to be controlled have not as yet emerged.
(§2) In using the compound, seeds of the types of plants set forth in Table II were sown in fresh soil. In the preemergence test the soil was sprayed with a solution of the test compound immediately after the seeds were planted, and before any noticeable growth developed. The solution was about a 2 percent by weight solution of the compound in acetone and/or alcohol. The compound was applied at the rate of 16 pounds per acre of soil surface.
(§3) Approximately 3 weeks after spray application, the herbicidal activity of the compound was determined by visual observation of the treated area in comparison with untreated control areas. These observations are reported below in Table II wherein the average activity rating is reported as the percent control of plant growth.
(§4) *Preemergence test: compound applied at rate of 16 lb/acre

Crabgrass [2] = assay: as above; settings: Digitaria sanguinalis, pre-emergence, 504 h, 16 lb/acre, about 3 weeks
Description: as §1, §2, §3, §4

Corn [3] = assay: as above; settings: Zea mays, pre-emergence, 504 h, 16 lb/acre, about 3 weeks
Description: as §1, §2, §3, §4

Wild Oats [4] = assay: as above; settings: Avena fatua, pre-emergence, 504 h, 16 lb/acre, about 3 weeks
Description: as §1, §2, §3, §4

Pigweed [5] = assay: as above; settings: Amaranthus retroflexus, pre-emergence, 504 h, 16 lb/acre, about 3 weeks
Description: as §1, §2, §3, §4

Velvetleaf [6] = assay: as above; settings: Abutilon theophrasti, pre-emergence, 504 h, 16 lb/acre, about 3 weeks
Description: as §1, §2, §3, §4

Cheatgrass [7] = assay: as above; settings: Bromus tectorum, pre-emergence, 504 h, 16 lb/acre, about 3 weeks
Description: as §1, §2, §3, §4

Alfalfa [8] = assay: as above; settings: Medicago sativa, pre-emergence, 504 h, 16 lb/acre, about 3 weeks
Description: as §1, §2, §3, §4

Curled Dock [9] = assay: as above; settings: pre-emergence, 504 h, 16 lb/acre, about 3 weeks
Description: as §1, §2, §3, §4

Johnsongrass [10] = assay: as above; settings: Sorghum halepense, pre-emergence, 504 h, 16 lb/acre, about 3 weeks
Description: as §1, §2, §3, §4

Lambsquarters [11] = assay: as above; settings: Chenopodium album, pre-emergence, 504 h, 16 lb/acre, about 3 weeks
Description: as §1, §2, §3, §4

Yellow Rocket [12] = assay: as above; settings: pre-emergence, 504 h, 16 lb/acre, about 3 weeks
Description: as §1, §2, §3, §4

Nutgrass [13] = assay: as above; settings: pre-emergence, 504 h, 16 lb/acre, about 3 weeks
Description: as §1, §2, §3, §4

Foxtail [14] = assay: as above; settings: Setaria, pre-emergence, 504 h, 16 lb/acre, about 3 weeks
Description: as §1, §2, §3, §4

Snapbeans [15] = assay: as above; settings: pre-emergence, 504 h, 16 lb/acre, about 3 weeks
Description: as §1, §2, §3, §4

Chickweed [16] = assay: as above; settings: pre-emergence, 504 h, 16 lb/acre, about 3 weeks
Description: as §1, §2, §3, §4

Cucumber [17] = assay: Postemergence herbicidal activity, % control of plant growth; settings: Cucumis sativus, post-emergence, 264 h, 8 lb/acre, about 11 days
Description: (§5) By the term "postemergence" is meant that the compound is applied to the plant sought to be controlled after it has emerged from the soil surface. This term is also used to describe the application of herbicidally active compounds to soil surface in and around growing plants sought to be controlled for purposes of effecting root absorption by the undesirable plant species.
(§6) In the postemergence test the soil and developing plants were sprayed approximately 2 weeks after the seeds were sown. The compound was applied at the rate of 8 pounds per acre from about a 2 percent by weight solution of the test compound in acetone and/or alcohol. The postemergence herbicidal activity was measured in the same way as the preemergence activity; i.e. visual observation approximately 11 days after spraying, and expressed as the percent control of plant growth.
(§7) **Postemergence test: compound applied at rate of 8 lb/acre

Crabgrass [18] = assay: as above; settings: Digitaria sanguinalis, post-emergence, 264 h, 8 lb/acre, about 11 days
Description: as §5, §6, §7

Corn [19] = assay: as above; settings: Zea mays, post-emergence, 264 h, 8 lb/acre, about 11 days
Description: as §5, §6, §7

Barnyard Grass [20] = assay: as above; settings: Echinochloa crus-galli, post-emergence, 264 h, 8 lb/acre, about 11 days
Description: as §5, §6, §7

Wild Oats [21] = assay: as above; settings: Avena fatua, post-emergence, 264 h, 8 lb/acre, about 11 days
Description: as §5, §6, §7

Pigweed [22] = assay: as above; settings: Amaranthus retroflexus, post-emergence, 264 h, 8 lb/acre, about 11 days
Description: as §5, §6, §7

Velvetleaf [23] = assay: as above; settings: Abutilon theophrasti, post-emergence, 264 h, 8 lb/acre, about 11 days
Description: as §5, §6, §7

Cheatgrass [24] = assay: as above; settings: Bromus tectorum, post-emergence, 264 h, 8 lb/acre, about 11 days
Description: as §5, §6, §7

Alfalfa [25] = assay: as above; settings: Medicago sativa, post-emergence, 264 h, 8 lb/acre, about 11 days
Description: as §5, §6, §7

Curled Dock [26] = assay: as above; settings: post-emergence, 264 h, 8 lb/acre, about 11 days
Description: as §5, §6, §7

Johnsongrass [27] = assay: as above; settings: Sorghum halepense, post-emergence, 264 h, 8 lb/acre, about 11 days
Description: as §5, §6, §7

Lambsquarters [28] = assay: as above; settings: Chenopodium album, post-emergence, 264 h, 8 lb/acre, about 11 days
Description: as §5, §6, §7

Yellow Rocket [29] = assay: as above; settings: post-emergence, 264 h, 8 lb/acre, about 11 days
Description: as §5, §6, §7

Nutgrass [30] = assay: as above; settings: post-emergence, 264 h, 8 lb/acre, about 11 days
Description: as §5, §6, §7

Foxtail [31] = assay: as above; settings: Setaria, post-emergence, 264 h, 8 lb/acre, about 11 days
Description: as §5, §6, §7

Snapbeans [32] = assay: as above; settings: post-emergence, 264 h, 8 lb/acre, about 11 days
Description: as §5, §6, §7

Chickweed [33] = assay: as above; settings: post-emergence, 264 h, 8 lb/acre, about 11 days
Description: as §5, §6, §7

Barnyard Grass [34] = assay: Preemergence herbicidal activity, % control of plant growth; settings: Echinochloa crus-galli, pre-emergence, 504 h; barnyard grass; 16 lb/acre; about 3 weeks
Description: as §1, §2, §3, §4

| Compound | pest or weed control at 17933.6 g/ha (Cucumber [1]) [%] | pest or weed control at 17933.6 g/ha (Crabgrass [2]) [%] | plant injury at 17933.6 g/ha (Corn [3]) [%] | pest or weed control at 17933.6 g/ha (Wild Oats [4]) [%] | pest or weed control at 17933.6 g/ha (Pigweed [5]) [%] | pest or weed control at 17933.6 g/ha (Velvetleaf [6]) [%] | pest or weed control at 17933.6 g/ha (Cheatgrass [7]) [%] | pest or weed control at 17933.6 g/ha (Alfalfa [8]) [%] | pest or weed control at 17933.6 g/ha (Curled Dock [9]) [%] | pest or weed control at 17933.6 g/ha (Johnsongrass [10]) [%] | pest or weed control at 17933.6 g/ha (Lambsquarters [11]) [%] | pest or weed control at 17933.6 g/ha (Yellow Rocket [12]) [%] | pest or weed control at 17933.6 g/ha (Nutgrass [13]) [%] | pest or weed control at 17933.6 g/ha (Foxtail [14]) [%] | pest or weed control at 17933.6 g/ha (Snapbeans [15]) [%] | pest or weed control at 17933.6 g/ha (Chickweed [16]) [%] | pest or weed control at 8966.8 g/ha (Cucumber [17]) [%] | pest or weed control at 8966.8 g/ha (Crabgrass [18]) [%] | plant injury at 8966.8 g/ha (Corn [19]) [%] | pest or weed control at 8966.8 g/ha (Barnyard Grass [20]) [%] | also measured |
| --- | --- | --- | --- | --- | --- | --- | --- | --- | --- | --- | --- | --- | --- | --- | --- | --- | --- | --- | --- | --- | --- |
| O=c1[nH]c2cccnc2c(=O)n1C1CCCCCCC1 [3-cyclooctyl-pyrido[3,2-d]pyrimidine-2,4(1H,3H)-dione] | 90 | 100 | 50 | 100 | 100 | 100 | 100 | 100 | 100 | 100 | 100 | 100 | 20 | 100 | 100 | 100 | 100 | 100 | 0 | 90 | pest or weed control at 8966.8 g/ha (Wild Oats [21]): 40%; pest or weed control at 8966.8 g/ha (Pigweed [22]): 100%; pest or weed control at 8966.8 g/ha (Velvetleaf [23]): 100%; pest or weed control at 8966.8 g/ha (Cheatgrass [24]): 30%; pest or weed control at 8966.8 g/ha (Alfalfa [25]): 60%; pest or weed control at 8966.8 g/ha (Curled Dock [26]): 100%; pest or weed control at 8966.8 g/ha (Johnsongrass [27]): 100%; pest or weed control at 8966.8 g/ha (Lambsquarters [28]): 100%; pest or weed control at 8966.8 g/ha (Yellow Rocket [29]): 100%; pest or weed control at 8966.8 g/ha (Nutgrass [30]): 40%; pest or weed control at 8966.8 g/ha (Foxtail [31]): 80%; pest or weed control at 8966.8 g/ha (Snapbeans [32]): 90%; pest or weed control at 8966.8 g/ha (Chickweed [33]): 100% |
| O=c1[nH]c2cccnc2c(=O)n1C1CC1 [3-cyclopropyl pyrido[3,2-d]pyrimidine-2,4(1H,3H)-dione] | 100 | 100 | 10 | 80 | 100 | 100 | 100 | 100 | 100 | 10 | 100 | 100 | 0 | 10 | 100 | 100 | 20 | 10 | 0 | 0 | pest or weed control at 17933.6 g/ha (Barnyard Grass [34]): 10%; pest or weed control at 8966.8 g/ha (Pigweed [22]): 90%; pest or weed control at 8966.8 g/ha (Velvetleaf [23]): 0%; pest or weed control at 8966.8 g/ha (Cheatgrass [24]): 0%; pest or weed control at 8966.8 g/ha (Alfalfa [25]): 0%; pest or weed control at 8966.8 g/ha (Curled Dock [26]): 10%; pest or weed control at 8966.8 g/ha (Johnsongrass [27]): 0%; pest or weed control at 8966.8 g/ha (Lambsquarters [28]): 100%; pest or weed control at 8966.8 g/ha (Yellow Rocket [29]): 100%; pest or weed control at 8966.8 g/ha (Nutgrass [30]): 0%; pest or weed control at 8966.8 g/ha (Foxtail [31]): 0%; pest or weed control at 8966.8 g/ha (Snapbeans [32]): 0%; pest or weed control at 8966.8 g/ha (Chickweed [33]): 100% |
| O=c1[nH]c2nccnc2c(=O)n1C1CCCCCCC1 [Lumazine, 3-cyclooctyl] | 100 | 90 | 30 | 100 | 100 | 100 | 100 | 100 | 100 | 90 | 100 | 100 | 30 | 40 | 100 | 100 | 100 | 100 | 10 | 90 | pest or weed control at 17933.6 g/ha (Barnyard Grass [34]): 70%; pest or weed control at 8966.8 g/ha (Wild Oats [21]): 10%; pest or weed control at 8966.8 g/ha (Velvetleaf [23]): 100%; pest or weed control at 8966.8 g/ha (Cheatgrass [24]): 0%; pest or weed control at 8966.8 g/ha (Alfalfa [25]): 10%; pest or weed control at 8966.8 g/ha (Curled Dock [26]): 100%; pest or weed control at 8966.8 g/ha (Johnsongrass [27]): 100%; pest or weed control at 8966.8 g/ha (Lambsquarters [28]): 100%; pest or weed control at 8966.8 g/ha (Yellow Rocket [29]): 100%; pest or weed control at 8966.8 g/ha (Nutgrass [30]): 10%; pest or weed control at 8966.8 g/ha (Foxtail [31]): 50%; pest or weed control at 8966.8 g/ha (Snapbeans [32]): 100%; pest or weed control at 8966.8 g/ha (Chickweed [33]): 100% |
| CC(C)n1c(=O)[nH]c2nccnc2c1=O [Lumazine, 3-isopropyl] | 100 | 70 | 10 | 10 | 100 | 100 | 10 | 100 | 100 | 70 | 100 | 100 | 0 | 10 | 90 | 60 | 10 | 0 | 0 | 0 | pest or weed control at 17933.6 g/ha (Barnyard Grass [34]): 0%; pest or weed control at 8966.8 g/ha (Wild Oats [21]): 0%; pest or weed control at 8966.8 g/ha (Pigweed [22]): 0%; pest or weed control at 8966.8 g/ha (Velvetleaf [23]): 0%; pest or weed control at 8966.8 g/ha (Cheatgrass [24]): 0%; pest or weed control at 8966.8 g/ha (Alfalfa [25]): 0%; pest or weed control at 8966.8 g/ha (Curled Dock [26]): 0%; pest or weed control at 8966.8 g/ha (Johnsongrass [27]): 0%; pest or weed control at 8966.8 g/ha (Lambsquarters [28]): 40%; pest or weed control at 8966.8 g/ha (Nutgrass [30]): 0%; pest or weed control at 8966.8 g/ha (Foxtail [31]): 0%; pest or weed control at 8966.8 g/ha (Snapbeans [32]): 30%; pest or weed control at 8966.8 g/ha (Chickweed [33]): 0% |
